Experimental findings from publication PMC7307906, “Macrocyclic Modalities Combining Peptide Epitopes and Natural Product Fragments” (Journal of the American Chemical Society, 2020) are described below.

Where two headings read alike, the source gives them in different places. Where a SMILES comes first, the peptide text is derived from it.

Data set [1] concerns the target T1, human MC1R (Homo sapiens, UniProt Q01726).
T1 construct: expressed in transfected cells
Kind of data set: Melanocortin receptor radioligand binding (SPA, [125I]-NDP-α-MSH displacement), MC1R. Particulars: competitive binding, mean (± SEM) of at least three independent experiments, read-out: IC50 hMC1R binding.

For data set [2], the target named is T2, human MC3R (Homo sapiens, UniProt P41968).
T2 construct: expressed in transfected cells
T2 sequence (P41968 whole entry): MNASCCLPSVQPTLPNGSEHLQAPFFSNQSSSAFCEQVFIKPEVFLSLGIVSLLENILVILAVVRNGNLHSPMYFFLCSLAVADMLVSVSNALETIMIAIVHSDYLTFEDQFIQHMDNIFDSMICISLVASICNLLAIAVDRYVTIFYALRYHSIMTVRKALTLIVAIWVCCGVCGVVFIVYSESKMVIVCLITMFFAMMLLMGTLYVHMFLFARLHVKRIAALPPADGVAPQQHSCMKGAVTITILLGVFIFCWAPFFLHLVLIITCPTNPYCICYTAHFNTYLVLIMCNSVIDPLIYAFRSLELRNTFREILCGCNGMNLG
Kind of data set: Melanocortin receptor radioligand binding (SPA, [125I]-NDP-α-MSH displacement), MC3R. Particulars: competitive binding, mean (± SEM) of at least three independent experiments, read-out: IC50 hMC3R binding.

Data set [3] has as its target T3, human MC4R (Homo sapiens, UniProt P32245).
T3 construct: expressed in transfected cells
Kind of data set: Melanocortin receptor radioligand binding (SPA, [125I]-NDP-α-MSH displacement), MC4R. Particulars: competitive binding, mean (± SEM) of at least three independent experiments, read-out: IC50 hMC4R binding.

The next data set has as its target T4, human MC5R (Homo sapiens, UniProt P33032).
T4 construct: expressed in transfected cells; host or cells: HEK293-6E suspension cells, transient expression; membranes
Kind of data set: Melanocortin receptor radioligand binding (SPA, [125I]-NDP-α-MSH displacement), MC5R. Particulars: competitive binding, [125I]-NDP-α-MSH; mean (± SEM) of at least three independent experiments; read-out: IC50 hMC5R binding.

The target of data set [4] is T1, human MC1R. The experiment in a line: cAMP assay (LANCE) in T-Rex-293 cells expressing MC1R. It is filed as cell-based.
Data set [5] has as its target T2, human MC3R. Kind of data set: cAMP assay (LANCE) in T-Rex-293 cells expressing MC3R. In kind it is cell-based. Particulars: cAMP assay; mean (± SEM) of at least three independent experiments; read-out: EC50 hMC3R cAMP. A general note: Cyclic AMP is a second messenger, typically raised through Gs and lowered through Gi signalling.
The target of data set [6] is T3, human MC4R. Kind of data set: cAMP assay (LANCE) in T-Rex-293 cells expressing MC4R. It is filed as cell-based. Particulars: cAMP assay; mean (± SEM) of at least three independent experiments; read-out: EC50 hMC4R cAMP.
A further data set has as its system hMC1−5R. The experiment in a line: Melanocortin receptor radioligand binding, result stated for all receptors together. Conditions: human MC receptors, radioligand binding. Set-up: species or system human. From the text: Example concentration response curves for selected PepNats in MC1R, MC3R, MC4R, MC5R radioligand binding assays and MC1R, MC3R, MC4R cAMP assays. Responses were normalized to reference agonist NDP -α-MSH and presented as % effect of control, with full competition in binding defined as -100% and full agonism in cAMP assays defined as […]
binding assay. Threshold to define a compound as active was set to -30% in binding assays and 20% in cAMP assays respectively. Data are from at least three independent experiments and error bars represent ± Standard Error of the […]
% s p e c ific b in d in g o f
(1 picture or pasted object on this page, not shown here) […]
expression, MC1R and MC4R transfected cells were treated with 0.1 ng /mL and MC3R transfected cells with 10 ng/mL doxycyclin, for 24 h before assay.
Melanocortin receptor radioligand binding and cAMP assays.
Binding and cAMP assays were performed as described by Durek et al.7 “A 384-well format scintillation proximity assay (SPA) was used to identify compounds that show competitive binding to the human Melanocortin receptor 1,3,4 or 5 ligand binding domain (LBD). […] The inhibition of the scintillation signal by displacement of [ 125I]- NDP-α-MSH by test compounds were detected by a 1450 MicroBeta Trilux scintillation counter […]
Plates were incubated for 16-23 h in the dark at room temperature before reading on a 1450 […]
Measurements of cAMP production were performed using LANCE® cAMP kits (PerkinElmer) in a total assay volume of 12 µl/well. […] The reaction was stopped with detection buffer containing 10 µM Biotin-cAMP and 15 µM LANCE Eu-W8044 labelled streptavidin (PerkinElmer LANCE cAMP kit). cAMP production was detected by homogenous time resolved fluorescence (HTRF) (λex = 340 nm, λem = 665 and 615 nm) using a Pherastar (BMG Labtech).
PepNats, literature compounds and references were tested in ten-point concentration response (½ log serial dilution) with 100, 10 or 1 µM as final start concentrations. Raw data output was analyzed in Screener software (Genedata AG) and pEC50 and pIC50 values calculated using a four-

For data set [7] the following is noted: the molecule shown is the open-chain precursor, amine bond, 37-membered ring, then NaBH3CN, DMF, resin, 25.0 °C.
For data set [8] the following is noted: the molecule shown is the open-chain precursor, other bond, 37-membered ring, CH(OMe)3/Et3N, DMF, THF, resin, 25.0 °C, with chain assembly.

T1 sequence (Q01726 whole entry): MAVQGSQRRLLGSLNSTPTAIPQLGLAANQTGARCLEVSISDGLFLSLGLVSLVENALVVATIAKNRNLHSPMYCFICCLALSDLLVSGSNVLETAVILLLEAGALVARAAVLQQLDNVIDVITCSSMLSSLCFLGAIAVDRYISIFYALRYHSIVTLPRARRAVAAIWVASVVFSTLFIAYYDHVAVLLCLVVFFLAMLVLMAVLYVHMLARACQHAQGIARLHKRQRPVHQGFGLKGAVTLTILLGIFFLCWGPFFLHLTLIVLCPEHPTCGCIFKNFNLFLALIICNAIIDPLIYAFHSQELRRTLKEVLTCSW
T3 sequence (P32245 whole entry): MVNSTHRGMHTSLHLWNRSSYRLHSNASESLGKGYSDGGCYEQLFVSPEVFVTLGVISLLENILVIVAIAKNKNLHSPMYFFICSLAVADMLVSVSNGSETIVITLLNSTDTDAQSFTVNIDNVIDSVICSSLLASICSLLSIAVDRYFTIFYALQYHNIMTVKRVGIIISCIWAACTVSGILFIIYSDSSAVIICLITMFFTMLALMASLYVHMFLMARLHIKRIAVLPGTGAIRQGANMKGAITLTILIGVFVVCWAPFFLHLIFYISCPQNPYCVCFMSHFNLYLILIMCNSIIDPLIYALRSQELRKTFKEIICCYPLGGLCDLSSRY
T4 sequence (P33032 whole entry): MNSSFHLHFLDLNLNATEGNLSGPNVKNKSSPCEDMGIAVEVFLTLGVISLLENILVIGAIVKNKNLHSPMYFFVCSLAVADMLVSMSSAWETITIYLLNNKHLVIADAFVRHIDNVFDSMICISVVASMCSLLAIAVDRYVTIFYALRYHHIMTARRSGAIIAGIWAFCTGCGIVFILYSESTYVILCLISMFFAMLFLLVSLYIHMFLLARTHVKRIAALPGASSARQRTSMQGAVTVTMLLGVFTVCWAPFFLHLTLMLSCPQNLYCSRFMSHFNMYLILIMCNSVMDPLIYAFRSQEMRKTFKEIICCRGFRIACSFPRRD

One may read the IC50 as the midpoint of a concentration-inhibition curve. For orientation: EC50 means the concentration giving half of the maximal effect. `C[C@@H]1NC(=O)[C@H](CC(N)=O)NC(=O)[C@H](Cc2ccccc2)NC(=O)[C@H](Cc2ccccc2)NC(=O)[C@H](CCCNC(=N)N)NC(=O)[C@@H](NC(=O)[C@@H](N)Cc2ccc(O)cc2)CSSC[C@@H](C(=O)N[C@@H](Cc2ccc(O)cc2)C(N)=O)NC(=O)[C@H](Cc2ccccc2)NC1=O` [compound 28, reference compound] (HELM PEPTIDE1{Y.C.R.F.F.N.A.F.C.Y.[am]}$PEPTIDE1,PEPTIDE1,2:R3-9:R3$$$V2.0): the IC50 at human MC1R [1] is 10 ± 1 µM; at human MC3R [2], 1.6 ± 0.1 µM; on human MC4R [3], 0.18 ± 0.01 µM; at human MC5R, 1.6 ± 0.3 µM. Also, the Emax on human MC1R [4] (T-REx-293, read-out: % Effect hMC1R cAMP) came to 44%. Besides, the “agonistic activity at MC1R (in words)” value at human MC1R [4] (cAMP assay, hMC1R) is listed as “weak partial agonistic activity”. Further, the EC50 is 1.2 ± 0.4 µM on human MC1R [4] (cAMP assay, mean (± SEM) of at least three independent experiments, read-out: EC50 hMC1R cAMP); greater than 100 µM on human MC3R [5]; greater than 100 µM on human MC4R [6]. The “binding to the MC receptors (in words)” value with hMC1−5R was “micromolar affinity”.

Regarding “H-Gly-MePhe-Ala-Leu-Phe-Pro-Gly-Phe-Lys(4-formylbenzoyl)-Gly-resin”, the ring closure, conversion in data set [7] (1% AcOH) came to 91%; in [7] (5% AcOH) it was 99%; in data set [7] (Et3N/4A MS) it was 4%. In addition, the figures for the ring closure, yield after HPLC in [8] (then 10/LiBr/Et3N) and in data set [8] (then 11/LiBr/Et3N) were 14% and 8%, respectively.
